Columns and labels:
[1] = test system: suspended S. cerevisiae cells; settings: 5.7 g/L hydroxyurea; cited from earlier work
P. pastoris = test: Effects of hydroxyurea on cell growth and antibody productivity in P. pastoris fermentation (Run 01MAY11); assay type: cell-based, Pichia pastoris; settings: for Sup Titer (Normalized): anti-IL-6 antibody supernatant titer; for Sup Titer (Normalized) / WB Titer (Normalized): lots T5, T6 and T10 + hydroxyurea 2.6-2.8 g/L; for WCW: lots T5, T6 and T10 + hydroxyurea 2.6-2.8 g/L added 5 hours after feed start, triplicate bioreactors; for WB Titer (Normalized): whole broth titer = supernatant titer*(1-WCW/1000)
Description: The glucose and ethanol were measured by YSI 2700 (YSI Incorporated, Yellow Springs, Ohio), O2 and CO2 of the exhaust line were measured by Questor GP Process Mass Spectrometer (ABB Extrel, Pittsburgh, Pa.) and the RQ value was calculated using below Equation [1]. The wet cell weight (WCW) was measured by centrifuging one (1) milliliter (mL) fermentation broth at 13,200 rpm for 10 minutes, weighing pellet, and calculated ratio of pellets weight (g) over volume (mL). The supernatant titer (g/L) was measured by the HPLC method and the whole broth (WB) titer was then calculated by below Equation[2]. Non reduced and reducing SDS-PAGE gels are performed following standard method.
WB_Titer=Supernatant_Titer*(1−WCW/1000)
The treatment cultures were operated the same way plus adding hydroxyurea 5 hours after feed start.

NC(=O)NO [Hydroxyurea]
reduction of cell mass [1]: 50%
reduction of total polysaccharide content [1]: 65%
synthesis of protein and RNA [1]: not adversely affected
average whole broth titer (P. pastoris; 90 hours run time, three hydroxyurea treatment lots, three control lots 59.8): 75 normalized units
WCW reached/maintained by hydroxyurea treatment lots (P. pastoris; after peak cell density at 30-40 hours, control lots ~400 g/Kg, FIG. 8): ~450 g/kg
Sup Titer (Normalized) (P. pastoris; age 59 h): 83.9 ± 2.2 Normalized
WCW (P. pastoris; age 59 h): 437 ± 17 g/kg
WB Titer (Normalized) (P. pastoris; age 59 h): 47.2 ± 1.8 Normalized
Sup Titer (Normalized) (P. pastoris; age 90 h): 123.3 ± 5.8 Normalized
WCW (P. pastoris; age 90 h): 392 ± 20 g/kg
WB Titer (Normalized) (P. pastoris; age 90 h): 75.0 ± 2.7 Normalized

Source: US20160024203A1, “METHODS OF PRODUCING ANTIBODIES IN YEAST” (BRISTOL-MYERS SQUIBB COMPANY, priority 2013, published 2016)
